According to the supplement of paper PMC10307832:

Legend:
Assay in all cases: relative viability (nuclei count vs DMSO), 5 days (fraction); higher = more cells survive
HCC-366 = system: HCC-366
Method in brief: (§1)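 Lung cancer cell lines in 1536-well plates got either a single drug or a fixed anchor-drug dose together with five library-drug doses (not always all listed) in √10 steps, by pin tool, on the day after seeding. Nuclei were counted after 5 days, and relative viability is the treated-to-vehicle ratio of nuclei counts. Values are medians of duplicate plates.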

NCI-H647 = system: NCI-H647
Method in brief: as §1

NCI-H2170 = system: NCI-H2170
Method in brief: as §1

HARA = system: HARA
Method in brief: as §1

LOU-NH91 = system: LOU-NH91
Method in brief: as §1

NCI-H1792 = system: NCI-H1792
Method in brief: as §1

NCI-H1355 = system: NCI-H1355
Method in brief: as §1

NCI-H1437 = system: NCI-H1437
Method in brief: as §1

NCI-H1734 = system: NCI-H1734
Method in brief: as §1

BEN = system: BEN
Method in brief: as §1

NCI-H2405 = system: NCI-H2405
Method in brief: as §1

NCI-H1993 = system: NCI-H1993
Method in brief: as §1

HCC-827 = system: HCC-827
Method in brief: as §1

NCI-H2342 = system: NCI-H2342
Method in brief: as §1

NCI-H1395 = system: NCI-H1395
Method in brief: as §1

NCI-H661 = system: NCI-H661
Method in brief: as §1

NCI-H2087 = system: NCI-H2087
Method in brief: as §1

EKVX = system: EKVX
Method in brief: as §1

NCI-H522 = system: NCI-H522
Method in brief: as §1

SK-MES-1 = system: SK-MES-1
Method in brief: as §1

NCI-H2009 = system: NCI-H2009
Method in brief: as §1

SK-LU-1 = system: SK-LU-1
Method in brief: as §1

Compound: O=c1cc(-c2cccc3c2Sc2ccccc2S3)oc(N2CCOCC2)c1 + COc1cccc2cc(-c3nc([C@H]4CC[C@H](C(=O)O)CC4)n4ncnc(N)c34)[nH]c12 [OSI-027] (partner 0.5 µM)
- relative viability (HCC-366; first compound 0.08 µM): 0.89
- relative viability (HCC-366; first compound 0.253 µM): 1.2
- relative viability (HCC-366; first compound 0.8 µM): 0.692
- relative viability (HCC-366; first compound 2.53 µM): 0.723
- relative viability (HCC-366; first compound 8 µM): 0.775
- relative viability (NCI-H647; first compound 0.08 µM): 0.636
- relative viability (NCI-H647; first compound 0.253 µM): 0.813
- relative viability (NCI-H647; first compound 0.8 µM): 0.588
- relative viability (NCI-H647; first compound 2.53 µM): 0.513
- relative viability (NCI-H647; first compound 8 µM): 0.623
- relative viability (NCI-H2170; first compound 0.08 µM): 0.78
- relative viability (NCI-H2170; first compound 0.253 µM): 0.801
- relative viability (NCI-H2170; first compound 0.8 µM): 0.727
- relative viability (NCI-H2170; first compound 2.53 µM): 0.508
- relative viability (NCI-H2170; first compound 8 µM): 0.717
- relative viability (HARA; first compound 0.08 µM): 0.458
- relative viability (HARA; first compound 0.253 µM): 0.624
- relative viability (HARA; first compound 0.8 µM): 0.566
- relative viability (HARA; first compound 2.53 µM): 0.424
- relative viability (HARA; first compound 8 µM): 0.481
- relative viability (LOU-NH91; first compound 0.08 µM): 0.687
- relative viability (LOU-NH91; first compound 0.253 µM): 0.736
- relative viability (LOU-NH91; first compound 0.8 µM): 0.594
- relative viability (LOU-NH91; first compound 2.53 µM): 0.628
- relative viability (LOU-NH91; first compound 8 µM): 0.758
- relative viability (NCI-H1792; first compound 0.08 µM): 0.775
- relative viability (NCI-H1792; first compound 0.253 µM): 0.803
- relative viability (NCI-H1792; first compound 0.8 µM): 0.663
- relative viability (NCI-H1792; first compound 2.53 µM): 0.647
- relative viability (NCI-H1792; first compound 8 µM): 0.581
- relative viability (NCI-H1355; first compound 0.08 µM): 0.402
- relative viability (NCI-H1355; first compound 0.253 µM): 0.376
- relative viability (NCI-H1355; first compound 0.8 µM): 0.335
- relative viability (NCI-H1355; first compound 2.53 µM): 0.338
- relative viability (NCI-H1355; first compound 8 µM): 0.33
- relative viability (NCI-H1437; first compound 0.08 µM): 0.885
- relative viability (NCI-H1437; first compound 0.253 µM): 1.17
- relative viability (NCI-H1437; first compound 0.8 µM): 1.01
- relative viability (NCI-H1437; first compound 2.53 µM): 0.891
- relative viability (NCI-H1437; first compound 8 µM): 1.02
- relative viability (NCI-H1734; first compound 0.08 µM): 0.556
- relative viability (NCI-H1734; first compound 0.253 µM): 0.613
- relative viability (NCI-H1734; first compound 0.8 µM): 0.611
- relative viability (NCI-H1734; first compound 8 µM): 0.61
- relative viability (BEN; first compound 0.08 µM): 0.279
- relative viability (BEN; first compound 0.253 µM): 0.268
- relative viability (BEN; first compound 0.8 µM): 0.281
- relative viability (BEN; first compound 2.53 µM): 0.298
- relative viability (BEN; first compound 8 µM): 0.321
- relative viability (NCI-H2405; first compound 0.08 µM): 0.604
- relative viability (NCI-H2405; first compound 0.253 µM): 0.647
- relative viability (NCI-H2405; first compound 0.8 µM): 0.61
- relative viability (NCI-H2405; first compound 2.53 µM): 0.61
- relative viability (NCI-H2405; first compound 8 µM): 0.618
- relative viability (NCI-H1993; first compound 0.08 µM): 0.539
- relative viability (NCI-H1993; first compound 0.253 µM): 0.543
- relative viability (NCI-H1993; first compound 0.8 µM): 0.548
- relative viability (NCI-H1993; first compound 2.53 µM): 0.562
- relative viability (NCI-H1993; first compound 8 µM): 0.637
- relative viability (HCC-827; first compound 0.08 µM): 0.802
- relative viability (HCC-827; first compound 0.253 µM): 0.877
- relative viability (HCC-827; first compound 0.8 µM): 0.947
- relative viability (HCC-827; first compound 2.53 µM): 0.643
- relative viability (HCC-827; first compound 8 µM): 0.897
- relative viability (NCI-H2342; first compound 0.08 µM): 0.569
- relative viability (NCI-H2342; first compound 0.253 µM): 0.607
- relative viability (NCI-H2342; first compound 0.8 µM): 0.545
- relative viability (NCI-H2342; first compound 2.53 µM): 0.594
- relative viability (NCI-H2342; first compound 8 µM): 0.568
- relative viability (NCI-H1395; first compound 0.08 µM): 0.594
- relative viability (NCI-H1395; first compound 0.253 µM): 0.581
- relative viability (NCI-H1395; first compound 0.8 µM): 0.601
- relative viability (NCI-H1395; first compound 2.53 µM): 0.577
- relative viability (NCI-H1395; first compound 8 µM): 0.683
- relative viability (NCI-H661; first compound 0.08 µM): 0.736
- relative viability (NCI-H661; first compound 0.253 µM): 0.739
- relative viability (NCI-H661; first compound 0.8 µM): 0.71
- relative viability (NCI-H661; first compound 2.53 µM): 0.642
- relative viability (NCI-H661; first compound 8 µM): 0.647
- relative viability (NCI-H2087; first compound 0.08 µM): 0.352
- relative viability (NCI-H2087; first compound 0.253 µM): 0.649
- relative viability (NCI-H2087; first compound 0.8 µM): 0.589
- relative viability (NCI-H2087; first compound 2.53 µM): 0.416
- relative viability (NCI-H2087; first compound 8 µM): 0.452
- relative viability (EKVX; first compound 0.08 µM): 0.722
- relative viability (EKVX; first compound 0.253 µM): 0.812
- relative viability (EKVX; first compound 0.8 µM): 0.678
- relative viability (EKVX; first compound 2.53 µM): 0.715
- relative viability (EKVX; first compound 8 µM): 0.67
- relative viability (NCI-H522; first compound 0.08 µM): 0.765
- relative viability (NCI-H522; first compound 0.253 µM): 0.685
- relative viability (NCI-H522; first compound 0.8 µM): 0.722
- relative viability (NCI-H522; first compound 2.53 µM): 0.723
- relative viability (NCI-H522; first compound 8 µM): 0.803
- relative viability (SK-MES-1; first compound 0.08 µM): 0.534
- relative viability (SK-MES-1; first compound 0.253 µM): 0.633
- relative viability (SK-MES-1; first compound 0.8 µM): 0.601
- relative viability (SK-MES-1; first compound 2.53 µM): 0.521
- relative viability (SK-MES-1; first compound 8 µM): 0.547
- relative viability (NCI-H2009; first compound 0.08 µM): 0.627
- relative viability (NCI-H2009; first compound 0.253 µM): 0.663
- relative viability (NCI-H2009; first compound 0.8 µM): 0.734
- relative viability (NCI-H2009; first compound 2.53 µM): 0.575
- relative viability (NCI-H2009; first compound 8 µM): 0.553
- relative viability (SK-LU-1; first compound 0.08 µM): 0.322
- relative viability (SK-LU-1; first compound 0.253 µM): 0.375
- relative viability (SK-LU-1; first compound 0.8 µM): 0.335
- relative viability (SK-LU-1; first compound 2.53 µM): 0.364
- relative viability (SK-LU-1; first compound 8 µM): 0.301
